{"source": "patent US20250281499A1", "about": "“FUSED AMINO PYRIMIDINE COMPOUNDS FOR TREATMENT OF NEUROPATHIC AND NEURO-INFLAMMATORY PAIN” (Ovid Therapeutics Inc., priority 2024, published 2025)", "key": {"[1]": {"system": "18-20 Div hippocampal neurons", "experiment": "Gramicidin perforated patch-clamp, EGABA in hippocampal neurons", "format": "cell-based, Sprague Dawley", "details": "300 nM", "description": "Neuronal Cultures. Hippocampal neurons were prepared from Sprague Dawley E18 embryos and plated at 450,000 per dish and maintained at 37° C. in a humidified 5% CO2 incubator for 10-25 days before experimentation (Lee et al., Nat. Neurosci. 14, 736-743 (2011)).\nAt this developmental stage, GABAAR receptor activation leads to hyperpolarization, a phenomenon critically dependent upon KCC2 (Kontou et al., J Biol Chem, 100364 (2021)).\nNeuronal Patch clamp assays. Neuronal cell culture recordings were performed in bath saline at 34° C. For gramicidin perforated-patch experiments, pipettes contained (in mM): 140 KCl and 10 HEPES, pH 7.4 KOH. For whole-cell experiments, pipettes contained (in mM): 115 K-meth-SO4, 30 KCl, 2 Mg-ATP, 4 Na-ATP, 0.4 Na-GTP, and 10 HEPES, pH 7.4 KOH. Bath saline contained the following (in mM): 140 NaCl, 2.5 KCl, 2.5 CaCl2, 2.5 MgCl2, 10 HEPES, and 11 glucose, pH 7.4 NaOH (Kontou et al., 2021, supra). All compound solutions were applied to cells using a three-barreled 700 μm pipe positioned just above the cell (Warner Instruments). […] All voltages from whole-cell experiments were corrected offline using a calculated liquid junction potential value (13.6 mV) in Clampex (Molecular Devices). For gramicidin perforated-patch experiments, intracellular Cl^− values were back-calculated using measured EGABA values and the Nernst equation: […]"}, "[2]": {"system": "panel of 144 protein kinases", "experiment": "Protein kinase panel (SelectScreen; Thermofisher)", "format": "biochemical", "details": "144 protein kinases incl. PKC isoforms, OSR1, SPAK, WNK", "description": "Aliquots of HEK-293 cells expressing, KCC2 were exposed to 30 μM SSA, heated from 37-55° C. The remaining level of soluble native KCC2 at each temperature was measured by immunoblotting and normalized to the level seen at 37° C. which was given a value of 1. […] This panel included protein kinase C isoforms, OSR1, SPAK (STK39) and with-no-lysine kinases (WNK), all of which phosphorylate KCC2 on multiple residues to indirectly modify its activity (Kahle et al., 2013, supra; Smalley et al., 2020, supra)."}, "[3]": {"biological_target": "T1, KCC4 (Homo sapiens, UniProt Q9Y666)", "T1 construct": "expressed in transfected cells; host or cells: HEK-293", "T1 sequence (Q9Y666 1-1083)": "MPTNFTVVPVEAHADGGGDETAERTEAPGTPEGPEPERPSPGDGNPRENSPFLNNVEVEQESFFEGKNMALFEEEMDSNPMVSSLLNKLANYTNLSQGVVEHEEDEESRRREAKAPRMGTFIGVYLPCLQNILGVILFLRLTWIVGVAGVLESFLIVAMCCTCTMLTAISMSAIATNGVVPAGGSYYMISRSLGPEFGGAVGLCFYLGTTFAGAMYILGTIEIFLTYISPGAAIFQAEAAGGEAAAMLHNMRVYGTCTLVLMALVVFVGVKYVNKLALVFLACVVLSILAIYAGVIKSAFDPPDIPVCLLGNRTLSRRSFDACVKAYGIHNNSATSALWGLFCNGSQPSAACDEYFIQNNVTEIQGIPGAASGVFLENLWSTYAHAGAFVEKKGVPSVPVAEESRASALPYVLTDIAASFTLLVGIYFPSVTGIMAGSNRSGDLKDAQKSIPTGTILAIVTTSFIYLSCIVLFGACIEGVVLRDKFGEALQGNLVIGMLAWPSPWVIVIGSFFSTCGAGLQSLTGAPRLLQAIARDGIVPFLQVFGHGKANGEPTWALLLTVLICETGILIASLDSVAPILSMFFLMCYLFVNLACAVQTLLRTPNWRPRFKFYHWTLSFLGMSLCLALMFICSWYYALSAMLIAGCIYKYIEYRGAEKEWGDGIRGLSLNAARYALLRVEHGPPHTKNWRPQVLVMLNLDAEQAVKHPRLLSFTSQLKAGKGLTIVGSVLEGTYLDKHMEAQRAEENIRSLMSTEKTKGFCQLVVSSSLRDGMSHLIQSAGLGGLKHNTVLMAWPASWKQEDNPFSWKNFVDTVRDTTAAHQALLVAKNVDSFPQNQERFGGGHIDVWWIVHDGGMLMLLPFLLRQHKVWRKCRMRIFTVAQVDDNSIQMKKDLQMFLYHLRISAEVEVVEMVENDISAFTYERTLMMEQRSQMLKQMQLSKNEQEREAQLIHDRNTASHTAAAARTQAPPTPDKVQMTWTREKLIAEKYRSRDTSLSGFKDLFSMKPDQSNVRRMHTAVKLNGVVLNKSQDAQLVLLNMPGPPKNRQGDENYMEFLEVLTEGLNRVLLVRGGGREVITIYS", "experiment": "Tl+ flux assay, HEK-293 cells expressing KCC4", "format": "cell-based", "details": "read-out: concentration at which effects on KCC4 were seen (EC50, FIG. 1G)", "description": "FLIPR TI Flux assay. HEK-293 cells were washed with HBSS, and then incubated with loading buffer containing TI sensitive fluorescent dye (https://www.moleculardevices.com), 20 μM bumetanide 20 μM ouabain and 2.5 mM probenecid for 1 h at room temperature (RT) under control conditions or with drugs in the dark using a FlexStation 3 microplate reader (Molecular Devices) and imaged […] for 30 min. Stimulus buffer was added containing 5 mM K^+/0.5 mM Tl^+ and cells were imaged every 1.5 over a 190 second time course The initial rate Tl^+ uptake (Relative Fluorescence Units (RFU) per second) was determined following addition of the stimulus buffer as outlined previously (Conway et al., 2017, supra) (Lee et al., 2022, supra).\nSeveral studies have shown that the activity and plasma membrane accumulation of KCC2 is potentiated via phosphorylation of S940, a process mediated by the activity of protein kinase C and protein phosphatase 1 (Lee et al, 2011, supra; Lee et al., J Biol Chem 282, 29777-29784 (2007); Moore et al., Proc. Natl. Acad. Sci. U.S.A 115, 10166-10171 (2018); Moore et al., Trends Neurosci. 40, 555-571 (2017); Silayeva et al., Proc. Natl. Acad. Sci. U.S.A. 112, 3523-3528 (2015)). […] Compared to KCC2, effects on KCC3, KCC4, and NKCC1 were only seen at concentrations more than 35-fold that of KCC2 (>100 μM) (FIG. 1G)."}}}
{"smiles": "C[C@@H]1CN(c2nc3c(c(Nc4ccc(C5CCCCC5)cc4)n2)COC3)CCO1", "note": "[Compound A, (R)—N-(4-cyclohexylphenyl)-2-(2-methylmorpholino)-5,7-dihydrofuro[3,4-d]pyrimidin-4-amine]", "values": [{"measurement": "reduction in Cl−", "setting": "[1]; 15 min, calculated from EGABA", "value": "2.2 ± 0.6", "unit": "mM"}, {"measurement": "EGABA at 15 min", "setting": "[1]; from −75±3.1 at 0 min, bumetanide and TTX present", "value": "−85.1±4.2", "unit": "mV"}, {"measurement": "activity of kinase panel", "setting": "[2]", "value": "did not modify the activity"}, {"measurement": "EC50", "setting": "[3]", "value": "> 100", "unit": "µM"}]}
